{
  "source": "patent US20020177543A1",
  "about": "“Method for determining the activity of uncoupling proteins (UCPs) by monitoring NAD(P)H consumption” (priority 2000, published 2002)",
  "key": {"Control mitochondria": {"tested_on": "Control mitochondria", "experiment": "Respiration rate from oxygen consumption (oxygen electrode), Control mitochondria", "format": "biochemical, Saccharomyces cerevisiae", "details": "CONTROL mitochondria of S. cerevisiae; GDP 3 mM, palmitate 48 μM, FCCP 10 μM (uncoupled respiration); basal 144"}, "UCP1 [1]": {"target": "T1, UCP1 (Rattus norvegicus, UniProt P04633)", "T1 construct": "made in house; host or cells: Saccharomyces cerevisiae W303, vector pYeDP-UCP (gal-cyc promoter); isolated mitochondria", "T1 sequence (P04633 1-307)": "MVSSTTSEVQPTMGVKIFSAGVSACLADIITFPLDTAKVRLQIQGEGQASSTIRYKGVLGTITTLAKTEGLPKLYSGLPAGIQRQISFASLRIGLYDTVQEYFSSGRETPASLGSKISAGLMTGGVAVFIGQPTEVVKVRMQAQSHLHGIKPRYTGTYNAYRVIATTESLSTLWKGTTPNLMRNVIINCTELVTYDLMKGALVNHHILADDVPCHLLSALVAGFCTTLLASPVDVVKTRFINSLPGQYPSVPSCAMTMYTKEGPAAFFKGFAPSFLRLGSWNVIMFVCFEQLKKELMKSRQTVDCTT", "experiment": "Respiration rate from oxygen consumption (oxygen electrode), mitochondria that express UCP1", "format": "biochemical", "details": "UCP1 mitochondria of S. cerevisiae; GDP 3 mM, palmitate 48 μM, FCCP 10 μM (uncoupled respiration); basal 218", "method": "(§1) To isolate the mitochondria required for the subsequent experiments, yeasts of the strain Saccharomyces cerevisiae W303 that express UCP1 were inoculated into SP growth medium (0.67% nitrogen substrate, 0.1% casamino acids, 20 mg/ml tryptophan, 40 mg/ml adenine, 0.1% phosphate, 0.12% ammonium sulphate, 0.1% glucose, 2% lactic acid, pH 4.5) 36 hours before extraction of the mitochondria; 12 or 14 hours before extraction they were diluted in SG medium (0.67% nitrogen substrate, 0.1% casamino acids, 20 mg/ml tryptophan, 40 mg/ml adenine, 2% galactose pH 4.5) adjusting the optical density at 600 nm to between 0.3-0.4 absorbance units [Arechaga I, Raimbault S. et al., (1993) Cysteine residues are not essential for uncoupling protein function. Biochem. J. 296. 693-700].\nThe mitochondria were prepared following a procedure based on that of Guerin et al., [Guerin B, Labbe P. Somlo M (1979) Preparation of yeast mitochondria (Saccharomyces cerevisiae) with good P/O and respiratory ratios Methods Enzymol. 55: 149-159]. The protoplasts are prepared by enzymatic digestion of the cell wall with cytohelicase and after their homogenization mitochondria are isolated by differential centrifugation [Arechaga I., Raimbault S. et al., (1993) Cysteine residues are not essential for uncoupling protein function. Biochem. J. 296. 693-700]. […]"}, "UCP1 [2]": {"target": "T1, UCP1", "experiment": "Respiration rate by monitoring NADH fluorescence (NADH consumption), mitochondria that express UCP1", "format": "biochemical", "details": "GDP 3 mM, palmitate 48 μM", "method": "as §1, with “693-700]. […]” for “693-700].”\nThe second method, which is the object of the present invention, is based on determining the respiration rate by measuring the consumption of NAD(P)H. All the assays were performed on a 96-well micro-titre standardized plate (Nunc., Denmark). […] Fluorescence measurements were done using a POLAR star Galaxy plate reader (BMG Laboratories OmbH, Offenburg, Germany). […] Changes in the fluorescence signal were determined every 30 seconds in each well with an average of 6-9 readings for each measurement. […] From these values, fluorescence values for the suspension of mitochondria in the absence of NADH (blank) were subtracted. […]"}},
  "data": [
    {"smiles": "Nc1nc2c(ncn2[C@@H]2O[C@H](COP(=O)(O)OP(=O)(O)O)[C@@H](O)[C@H]2O)c(=O)[nH]1", "note": "[GDP]", "values": [
      {"measurement": "Oxygen consumption", "setting": "Control mitochondria", "value": "155 nmoles of oxygen consumed per minute and per mg of protein"},
      {"measurement": "Oxygen consumption", "setting": "UCP1 [1]", "value": "149 nmoles of oxygen consumed per minute and per mg of protein"},
      {"measurement": "Change in rate of NADH consumption compared to basal levels (in words)", "setting": "UCP1 [2]", "value": "reduced compared to basal levels"}
    ]}
  ]
}
